According to publication PMC3211034, “Optimal Production and Biochemical Properties of a Lipase from Candida albicans” (International Journal of Molecular Sciences, 2011):

Tests used:
[1] = target: T1, CaLIP10 (lipase 10 from Candida albicans; product of lip10-dm) (Candida albicans, UniProt Q9P4E5); experiment: clear zone on tributyrin-emulsion YPD plates, secreting P. pastoris transformants; format: cell-based; conditions: 1% tributyrin emulsion; X-33 and empty-vector control
T1 construct: mature protein without signal peptide, cloned from genomic DNA; CTG-Ser codons 210 and 378 recoded to TCT, so the product keeps native Ser210 and Ser378 (no amino-acid change); secreted from Pichia pastoris X33 with pGAPZalphaA; about 50 kDa by SDS-PAGE

[2] = target: T1, CaLIP10 (lipase 10 from Candida albicans; product of lip10-dm); experiment: spectrophotometric release of p-nitrophenol at […] nm; format: biochemical; conditions: 2 mM substrate, 50 mM Tris-HCl pH 8.0, 25 °C

T1 sequence (Q9P4E5 17-465): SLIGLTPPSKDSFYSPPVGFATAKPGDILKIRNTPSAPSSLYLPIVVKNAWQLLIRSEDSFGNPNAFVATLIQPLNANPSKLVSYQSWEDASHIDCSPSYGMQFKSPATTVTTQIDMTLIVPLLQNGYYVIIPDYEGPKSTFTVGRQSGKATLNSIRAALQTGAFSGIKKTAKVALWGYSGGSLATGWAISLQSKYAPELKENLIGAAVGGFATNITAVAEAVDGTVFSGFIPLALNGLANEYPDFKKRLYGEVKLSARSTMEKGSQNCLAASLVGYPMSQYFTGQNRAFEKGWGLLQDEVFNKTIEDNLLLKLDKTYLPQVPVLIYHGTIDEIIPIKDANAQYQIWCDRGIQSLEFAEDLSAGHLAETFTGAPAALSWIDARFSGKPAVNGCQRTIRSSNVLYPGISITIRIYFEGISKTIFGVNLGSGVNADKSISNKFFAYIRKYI

Compound: CCCC(=O)OCC(COC(=O)CCC)OC(=O)CCC [tributyrin]
- clear zone on tributyrin-emulsion YPD plates, secreting P. pastoris transformant [1]: a clear zone was formed around wild type lip10 and mutated lip10-dm

Compound: CCCCCCCC(=O)Oc1ccc([N+](=O)[O-])cc1 [p-nitrophenol caprylate]
- spectrophotometric release of p-nitrophenol at 405 nm [2]: The lipase activity was determined spectrophotometrically using p-nitrophenol caprylate as substrate.
